Measurements reported in patent US20250230171A1 (MOMA Therapeutics, Inc., priority 2023, published 2025).
Where two headings read alike, the source gives them in different places.

Experiments:
[1] = target: biotinylated Avi-POLθ[2-894] (Homo sapiens (Human), UniProt O75417); test: POLθ ATPase assay (ADP-Glo); details: POLθ ATPase, ADP-Glo; n=2; read-out: Biochemical ATPase ADPGlo IC50
DLD1 WT cells = test: 7-day cell viability assay (CellTiter-Glo), DLD1 parental (WT); assay type: cell-based, human; details: 7-day CellTiter-Glo, n=2
DLD1 BRCA2 (−/−) cells = test: 7-day cell viability assay (CellTiter-Glo), DLD1 BRCA2 (−/−); assay type: cell-based, human; details: 7-day CellTiter-Glo, n=2, read-out: Viability IC50 (uM) DLD1 BRCA2 null
Outline: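 7-day growth assay in DLD1 cells with or without BRCA2; seeding densities chosen to keep log-linear growth. Compound: 10 uM top, 3-fold, 9 points. Endpoint: CTG ATP luminescence at RT.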

Sequence of biotinylated Avi-POLθ[2-894] (O75417 2-894): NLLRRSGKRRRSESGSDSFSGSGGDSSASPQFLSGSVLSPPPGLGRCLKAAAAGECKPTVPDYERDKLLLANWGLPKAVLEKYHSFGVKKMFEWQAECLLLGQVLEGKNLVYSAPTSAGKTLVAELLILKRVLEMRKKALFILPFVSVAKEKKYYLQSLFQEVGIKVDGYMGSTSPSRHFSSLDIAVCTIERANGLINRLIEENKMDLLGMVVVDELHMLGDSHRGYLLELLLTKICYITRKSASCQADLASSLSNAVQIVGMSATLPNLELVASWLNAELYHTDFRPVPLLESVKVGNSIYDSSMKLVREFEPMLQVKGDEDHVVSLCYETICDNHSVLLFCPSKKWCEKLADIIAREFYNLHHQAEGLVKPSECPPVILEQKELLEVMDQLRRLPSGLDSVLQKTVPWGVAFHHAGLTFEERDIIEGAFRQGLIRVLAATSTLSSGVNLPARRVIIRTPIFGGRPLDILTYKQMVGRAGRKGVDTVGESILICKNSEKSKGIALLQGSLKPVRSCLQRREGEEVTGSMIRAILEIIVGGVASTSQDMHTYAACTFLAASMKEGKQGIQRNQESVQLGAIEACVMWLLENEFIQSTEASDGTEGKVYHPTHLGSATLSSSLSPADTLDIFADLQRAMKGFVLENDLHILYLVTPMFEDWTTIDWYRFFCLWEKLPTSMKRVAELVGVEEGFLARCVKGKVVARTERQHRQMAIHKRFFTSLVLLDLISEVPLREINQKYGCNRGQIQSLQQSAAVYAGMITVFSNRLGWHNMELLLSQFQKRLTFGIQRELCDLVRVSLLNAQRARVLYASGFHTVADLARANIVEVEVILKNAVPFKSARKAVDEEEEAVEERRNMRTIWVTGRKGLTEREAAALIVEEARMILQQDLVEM

| Compound | IC50 [1] | IC50 (DLD1 BRCA2 (−/−) cells; Homo sapiens, DLD-1, 168 h) | IC50 (DLD1 BRCA2 (−/−) cells) | IC50 (DLD1 WT cells; Homo sapiens, DLD-1, 168 h) | IC50 (DLD1 WT cells) |
| --- | --- | --- | --- | --- | --- |
| COc1cnc(Cl)cc1-c1cc(C)ncc1C(=O)Nc1nc2c(s1)CN(C(=O)c1ccc(OC(F)(F)F)nc1C)C2 [Example 1018, 2′-chloro-5′-methoxy-6-methyl-N-(5-(2-methyl-6-(trifluoromethoxy)nicotinoyl)-5,6-dihydro-4H-pyrrolo[3,4-d]thiazol-2-yl)-[4,4′-bipyridine]-3-carboxamide] | – | 0.001 to 0.1 µM | – | ≥ 10 µM | – |
| COc1cnc(Cl)cc1-c1cc(C)ncc1C(=O)Nc1nc2c(s1)CN(C(=O)c1nc(C)c(C(F)F)c(C)c1Cl)C2 [Example 1020, 2′-chloro-N-(5-(3-chloro-5-(difluoromethyl)-4,6-dimethylpicolinoyl)-5,6-dihydro-4H-pyrrolo[3,4-d]thiazol-2-yl)-5′-methoxy-6-methyl-[4,4′-bipyridine]-3-carboxamide] | – | 0.001 to 0.1 µM | – | ≥ 10 µM | – |
| COc1cnc(Cl)cc1-c1cc(C)ncc1C(=O)Nc1nc2c(s1)CN(C(=O)c1nc(C(F)(F)F)c(C#N)cc1C)C2 [Example 1022, 2′-chloro-N-(5-(5-cyano-3-methyl-6-(trifluoromethyl)picolinoyl)-5,6-dihydro-4H-pyrrolo[3,4-d]thiazol-2-yl)-5′-methoxy-6-methyl-[4,4′-bipyridine]-3-carboxamide] | – | 0.001 to 0.1 µM | – | ≥ 10 µM | – |
| COc1cnc(Cl)c(F)c1-c1cc(C)ncc1C(=O)Nc1nc2c(s1)CN(C(=O)c1ccc(C(F)(F)F)nc1OC)C2 [Example 1023, 2′-chloro-3′-fluoro-5′-methoxy-N-(5-(2-methoxy-6-(trifluoromethyl)nicotinoyl)-5,6-dihydro-4H-pyrrolo[3,4-d]thiazol-2-yl)-6-methyl-[4,4′-bipyridine]-3-carboxamide] | – | 0.001 to 0.1 µM | – | ≥ 10 µM | – |
| COc1nnc(C(F)F)cc1-c1cc(C)ncc1C(=O)Nc1nc2c(s1)CN(C(=O)c1nccc(C(F)(F)F)c1F)C2 [Example 1026, 4-(6-(difluoromethyl)-3-methoxypyridazin-4-yl)-N-(5-(3-fluoro-4-(trifluoromethyl)picolinoyl)-5,6-dihydro-4H-pyrrolo[3,4-d]thiazol-2-yl)-6-methylnicotinamide] | – | 0.001 to 0.1 µM | – | ≥ 10 µM | – |
| COc1cnc(Cl)cc1-c1cc(C)ncc1C(=O)Nc1nc2c(s1)CN(C(=O)c1nc(C)c(OC(F)F)cc1C)C2 [Example 1027, 2′-chloro-N-(5-(5-(difluoromethoxy)-3,6-dimethylpicolinoyl)-5,6-dihydro-4H-pyrrolo[3,4-d]thiazol-2-yl)-5′-methoxy-6-methyl-[4,4′-bipyridine]-3-carboxamide] | – | 0.001 to 0.1 µM | – | ≥ 10 µM | – |
| COc1cnc(Cl)cc1-c1cc(C)ncc1C(=O)Nc1nc2c(s1)CN(C(=O)c1nc(C)c(OC(F)(F)F)cc1C)C2 [Example 1028, 2′-chloro-N-(5-(3,6-dimethyl-5-(trifluoromethoxy)picolinoyl)-5,6-dihydro-4H-pyrrolo[3,4-d]thiazol-2-yl)-5′-methoxy-6-methyl-[4,4′-bipyridine]-3-carboxamide] | – | 0.001 to 0.1 µM | – | ≥ 10 µM | – |
| COc1cnc(C)c(F)c1-c1cc(C)ncc1C(=O)Nc1nc2c(s1)CN(C(=O)c1ccc(C(F)(F)F)nc1OC)C2 [Example 1029, 3′-fluoro-5′-methoxy-N-(5-(2-methoxy-6-(trifluoromethyl)nicotinoyl)-5,6-dihydro-4H-pyrrolo[3,4-d]thiazol-2-yl)-2′,6-dimethyl-[4,4′-bipyridine]-3-carboxamide] | – | 0.001 to 0.1 µM | – | ≥ 10 µM | – |
| COc1cc(C)c(C(=O)N2Cc3nc(NC(=O)c4cnc(C)cc4-c4cc(Cl)ncc4OC)sc3C2)c(Cl)n1 [Example 1030, 2′-chloro-N-(5-(2-chloro-6-methoxy-4-methylnicotinoyl)-5,6-dihydro-4H-pyrrolo[3,4-d]thiazol-2-yl)-5′-methoxy-6-methyl-[4,4′-bipyridine]-3-carboxamide] | – | 0.001 to 0.1 µM | – | ≥ 10 µM | – |
| COc1nc(C(F)(F)F)ccc1C(=O)N1Cc2nc(NC(=O)c3cnc(C)cc3-c3cc(C(F)F)cnc3OC)sc2C1 [Example 1032, 5-(difluoromethyl)-2-methoxy-N-(5-(2-methoxy-6-(trifluoromethyl)nicotinoyl)-5,6-dihydro-4H-pyrrolo[3,4-d]thiazol-2-yl)-6′-methyl-[3,4′-bipyridine]-3′-carboxamide] | – | 0.001 to 0.1 µM | – | ≥ 10 µM | – |
| COc1ncc(Cl)cc1-c1cc(C)ncc1C(=O)Nc1nc2c(s1)CN(C(=O)c1nccc(C(F)(F)F)c1OC)C2 [Example 1034, 5-chloro-2-methoxy-N-(5-(3-methoxy-4-(trifluoromethyl)picolinoyl)-5,6-dihydro-4H-pyrrolo[3,4-d]thiazol-2-yl)-6′-methyl-[3,4′-bipyridine]-3′-carboxamide] | – | 0.001 to 0.1 µM | – | ≥ 10 µM | – |
| COc1cnc(Cl)cc1-c1cc(C)ncc1C(=O)Nc1nc2c(s1)CN(C(=O)c1ccc(OC(F)(F)F)nc1OC)C2 [Example 1039, 2′-chloro-5′-methoxy-N-(5-(2-methoxy-6-(trifluoromethoxy)nicotinoyl)-5,6-dihydro-4H-pyrrolo[3,4-d]thiazol-2-yl)-6-methyl-[4,4′-bipyridine]-3-carboxamide] | – | 0.001 to 0.1 µM | – | ≥ 10 µM | – |
| COc1nc(C(F)(F)F)ccc1C(=O)N1Cc2nc(NC(=O)c3cnc(C)cc3-c3cc(C#N)cnc3OC)sc2C1 [Example 1048, 5-cyano-2-methoxy-N-(5-(2-methoxy-6-(trifluoromethyl)nicotinoyl)-5,6-dihydro-4H-pyrrolo[3,4-d]thiazol-2-yl)-6′-methyl-[3,4′-bipyridine]-3′-carboxamide] | – | 0.001 to 0.1 µM | – | ≥ 10 µM | – |
| N-(5-(2-Chloro-3-(difluoromethyl)benzoyl)-5,6-dihydro-4H-pyrrolo[3,4-d]thiazol-2-yl)-4-(5-cyano-2-methoxyphenyl)-6-methylnicotinamide [Example 443] | – | – | 0.001 to 0.1 µM | – | ≥ 10 µM |

Continued, in another order:

| IC50 [1] | IC50 (DLD1 BRCA2 (−/−) cells; Homo sapiens, DLD-1, 168 h) | IC50 (DLD1 BRCA2 (−/−) cells) | Compound | IC50 (DLD1 WT cells; Homo sapiens, DLD-1, 168 h) | IC50 (DLD1 WT cells) |
| --- | --- | --- | --- | --- | --- |
| 1 to 15 nM | 0.001 to 0.1 µM | – | COc1cc(Cl)c(C(=O)N2Cc3nc(NC(=O)c4cnc(C)cc4-c4cc(Cl)ncc4OC)sc3C2)cn1 | ≥ 10 µM | – |
| – | 0.001 to 0.1 µM | – | COc1cnc(C(F)F)cc1-c1cc(C)ncc1C(=O)Nc1nc2c(s1)CN(C(=O)c1ccc(C(F)(F)F)nc1OC)C2 [Example 1016, 2′-(difluoromethyl)-5′-methoxy-N-(5-(2-methoxy-6-(trifluoromethyl)nicotinoyl)-5,6-dihydro-4H-pyrrolo[3,4-d]thiazol-2-yl)-6-methyl-[4,4′-bipyridine]-3-carboxamide] | ≥ 10 µM | – |
| – | 0.001 to 0.1 µM | – | COc1cnc(Cl)cc1-c1cc(C)ncc1C(=O)Nc1nc2c(s1)CN(C(=O)c1c(C)cc(C(F)(F)F)nc1OC)C2 [Example 1019, 2′-chloro-5′-methoxy-N-(5-(2-methoxy-4-methyl-6-(trifluoromethyl)nicotinoyl)-5,6-dihydro-4H-pyrrolo[3,4-d]thiazol-2-yl)-6-methyl-[4,4′-bipyridine]-3-carboxamide] | ≥ 10 µM | – |
| – | 0.001 to 0.1 µM | – | COc1nnc(C(F)F)cc1-c1cc(C)ncc1C(=O)Nc1nc2c(s1)CN(C(=O)c1nccc(C(F)(F)F)c1C)C2 [Example 1024, 4-(6-(difluoromethyl)-3-methoxypyridazin-4-yl)-6-methyl-N-(5-(3-methyl-4-(trifluoromethyl)picolinoyl)-5,6-dihydro-4H-pyrrolo[3,4-d]thiazol-2-yl)nicotinamide] | ≥ 10 µM | – |
| – | 0.001 to 0.1 µM | – | COc1nc(C(F)(F)F)ccc1C(=O)N1Cc2nc(NC(=O)c3cnc(C)cc3-c3cc(C(F)F)nnc3OC)sc2C1 [Example 1025, 4-(6-(difluoromethyl)-3-methoxypyridazin-4-yl)-N-(5-(2-methoxy-6-(trifluoromethyl)nicotinoyl)-5,6-dihydro-4H-pyrrolo[3,4-d]thiazol-2-yl)-6-methylnicotinamide] | ≥ 10 µM | – |
| – | 0.001 to 0.1 µM | – | COc1cnc(Cl)cc1-c1cc(C)ncc1C(=O)Nc1nc2c(s1)CN(C(=O)c1ccc(C(F)(F)F)nc1OC)C2C (stereo not shown) [Example 1033, 2′-chloro-5′-methoxy-N-(5-(2-methoxy-6-(trifluoromethyl)nicotinoyl)-4-methyl-5,6-dihydro-4H-pyrrolo[3,4-d]thiazol-2-yl)-6-methyl-[4,4′-bipyridine]-3-carboxamide] | ≥ 10 µM | – |
| – | 0.001 to 0.1 µM | – | COc1ncc(Cl)cc1-c1cc(C)ncc1C(=O)Nc1nc2c(s1)CN(C(=O)c1ccc(C(F)(F)F)c(OC)n1)C2 [Example 1035, 5-chloro-2-methoxy-N-(5-(6-methoxy-5-(trifluoromethyl)picolinoyl)-5,6-dihydro-4H-pyrrolo[3,4-d]thiazol-2-yl)-6′-methyl-[3,4′-bipyridine]-3′-carboxamide] | ≥ 10 µM | – |
| – | 0.1 to 0.25 µM | – | COc1ccc(C(=O)N2Cc3nc(NC(=O)c4cnc(C)cc4-c4cc(Cl)ncc4OC)sc3C2)c(F)n1 [Example 1038, 2′-chloro-N-(5-(2-fluoro-6-methoxynicotinoyl)-5,6-dihydro-4H-pyrrolo[3,4-d]thiazol-2-yl)-5′-methoxy-6-methyl-[4,4′-bipyridine]-3-carboxamide] | ≥ 10 µM | – |
| – | 0.001 to 0.1 µM | – | COc1ncc(Cl)cc1-c1cc(C)ncc1C(=O)Nc1nc2c(s1)CN(C(=O)c1nc(OC)c(C(F)(F)F)cc1C)C2 [Example 1044, 5-chloro-2-methoxy-N-(5-(6-methoxy-3-methyl-5-(trifluoromethyl)picolinoyl)-5,6-dihydro-4H-pyrrolo[3,4-d]thiazol-2-yl)-6′-methyl-[3,4′-bipyridine]-3′-carboxamide] | ≥ 10 µM | – |
| – | – | 0.001 to 0.1 µM | N-(5-(2-Methoxy-6-(trifluoromethyl)nicotinoyl)-5,6-dihydro-4H-pyrrolo[3,4-d]thiazol-2-yl)-4-(6-methoxyimidazo[1,5-a]pyridin-7-yl)-6-methylnicotinamide [Example 568] | – | ≥ 10 µM |
